# Measured values: US7342011B2, “Rifamycin analogs and uses thereof” (priority 2003, dated 2008)
# Tested on: E. coli
# Assay: MIC assay, E. coli
# Type: cell-based
row,SMILES,MIC (μg/mL) E. coli
1,"CO[C@H]1/C=C/O[C@@]2(C)Oc3c(C)c(O)c4c(=O)c(c5oc6cc(N7C[C@H]8CCCN[C@H]8C7)cc(O)c6nc-5c4c3C2=O)NC(=O)/C(C)=C\C=C\[C@H](C)[C@H](O)[C@@H](C)[C@@H](O)[C@@H](C)[C@H](O)[C@@H]1C [Compound 15, 25-O-deacetyl-3′-hydroxy-5′-[(4aR,7aR)-octahydro-6H-pyrrolo[3,4-b]pyridin-6-yl]benzoxazinorifamycin]",>8 µg/mL
2,"CO[C@H]1/C=C/O[C@@]2(C)Oc3c(C)c(O)c4c(=O)c(c5oc6cc(N7CC8CCC(C7)N8)cc(O)c6nc-5c4c3C2=O)NC(=O)/C(C)=C\C=C\[C@H](C)[C@H](O)[C@@H](C)[C@@H](O)[C@@H](C)[C@H](O)[C@@H]1C [Compound 16, 25-O-deacetyl-3′-hydroxy-5′-(3,8-diazabicyclo[3.2.1]octan-3-yl)benzoxazinorifamycin]",4 µg/mL
3,"CO[C@H]1/C=C/O[C@@]2(C)Oc3c(C)c(O)c4c(=O)c(c5oc6cc(N7CCC(N(C)C)CC7)cc(O)c6nc-5c4c3C2=O)NC(=O)/C(C)=C\C=C\[C@H](C)[C@H](O)[C@@H](C)[C@@H](O)[C@@H](C)[C@H](OC(C)=O)[C@@H]1C [Compound 17, 3′-hydroxy-5′-(4-N,N-dimethylamino-1-piperidinyl)benzoxazinorifamycin]",8 µg/mL
4,"CO[C@H]1/C=C/O[C@@]2(C)Oc3c(C)c(O)c4c(=O)c(c5oc6cc(N7CCC(N(C)C)CC7)cc(O)c6nc-5c4c3C2=O)NC(=O)/C(C)=C\C=C\[C@H](C)[C@H](O)[C@@H](C)[C@@H](O)[C@@H](C)[C@H](O)[C@@H]1C [Compound 18, 25-O-deacetyl-3′-hydroxy-5′-(4-N,N dimethylamino-1-piperidinyl)benzoxazinorifamycin]",4 µg/mL
5,"COC1C=COC2(C)Oc3c(C)c(O)c4c(=O)c(c5oc6cc(N7CC8C(N)C8C7)cc(O)c6nc-5c4c3C2=O)NC(=O)C(C)=CC=CC(C)C(O)C(C)C(O)C(C)C(O)C1C [Compound 20, 25-O-deacetyl-3′-hydroxy-5′-[6-amino-(1R,5S)-3-azabicyclo[3.1.0]hex-3-yl]benzoxazinorifamycin]",>8 µg/mL
6,CCOC(=O)NC1C2CN(c3cc(O)c4nc5c6c7c8c(C)c(O)c6c(=O)c(c-5oc4c3)NC(=O)C(C)=CC=CC(C)C(O)C(C)C(O)C(C)C(OC(C)=O)C(C)C(OC)C=COC(C)(O8)C7=O)CC21 (stereo not drawn) [Compound 21],4 µg/mL
7,CO[C@H]1/C=C/O[C@@]2(C)Oc3c(C)c(O)c4c(=O)c(c5oc6cc(N7CCC(NC(=O)OC(C)C)CC7)cc(O)c6nc-5c4c3C2=O)NC(=O)/C(C)=C\C=C\[C@H](C)[C@H](O)[C@@H](C)[C@@H](O)[C@@H](C)[C@H](OC(C)=O)[C@@H]1C [Compound 22],>8 µg/mL
8,CO[C@H]1/C=C/O[C@@]2(C)Oc3c(C)c(O)c4c(=O)c(c5oc6cc(N7CCC(NS(=O)(=O)C(F)(F)F)CC7)cc(O)c6nc-5c4c3C2=O)NC(=O)/C(C)=C\C=C\[C@H](C)[C@H](O)[C@@H](C)[C@@H](O)[C@@H](C)[C@H](OC(C)=O)[C@@H]1C [Compound 23],>8 µg/mL
9,"CCCC(=O)NC1CCN(c2cc(O)c3nc4c5c6c7c(C)c(O)c5c(=O)c(c-4oc3c2)NC(=O)/C(C)=C\C=C\[C@H](C)[C@H](O)[C@@H](C)[C@@H](O)[C@@H](C)[C@H](OC(C)=O)[C@H](C)[C@@H](OC)/C=C/O[C@@](C)(O7)C6=O)CC1 [Compound 24, 3′-hydroxy-5′-[4-butanamide-1-piperidinyl]benzoxazinorifamycin]",>8 µg/mL
10,CO[C@H]1/C=C/O[C@@]2(C)Oc3c(C)c(O)c4c(=O)c(c5oc6cc(N7CCC(NS(C)(=O)=O)CC7)cc(O)c6nc-5c4c3C2=O)NC(=O)/C(C)=C\C=C\[C@H](C)[C@H](O)[C@@H](C)[C@@H](O)[C@@H](C)[C@H](OC(C)=O)[C@@H]1C [Compound 25],>8 µg/mL
11,"CCCNC(=O)NC1CCN(c2cc(O)c3nc4c5c6c7c(C)c(O)c5c(=O)c(c-4oc3c2)NC(=O)/C(C)=C\C=C\[C@H](C)[C@H](O)[C@@H](C)[C@@H](O)[C@@H](C)[C@H](OC(C)=O)[C@H](C)[C@@H](OC)/C=C/O[C@@](C)(O7)C6=O)CC1 [Compound 28, 3′-hydroxy-5′-[4-propyluryl-1-piperidinyl]benzoxazinorifamycin]",>8 µg/mL
12,"COC(=O)NC1CCN(c2cc(O)c3nc4c5c6c7c(C)c(O)c5c(=O)c(c-4oc3c2)NC(=O)/C(C)=C\C=C\[C@H](C)[C@H](O)[C@@H](C)[C@@H](O)[C@@H](C)[C@H](O)[C@H](C)[C@@H](OC)/C=C/O[C@@](C)(O7)C6=O)CC1 [Compound 30, 25-O-deacetyl-3′-hydroxy-5′-[4-methylcarbamyl-1-piperidinyl]benzoxazinorifamycin]",>8 µg/mL
13,CCOC(=O)NC1CCN(c2ccc3nc4c5c6c7c(C)c(O)c5c(=O)c(c-4n(C)c3c2)NC(=O)/C(C)=C\C=C\[C@H](C)[C@H](O)[C@@H](C)[C@@H](O)[C@@H](C)[C@H](O)[C@H](C)[C@@H](OC)/C=C/O[C@@](C)(O7)C6=O)CC1 [Compound 31],8 µg/mL
14,"CO[C@H]1/C=C/O[C@@]2(C)Oc3c(C)c(O)c4c(=O)c(c5oc6cc(N7CCC(N)CC7)cc(O)c6nc-5c4c3C2=O)NC(=O)/C(C)=C\C=C\[C@H](C)[C@H](O)[C@@H](C)[C@@H](O)[C@@H](C)[C@H](OC(C)=O)[C@@H]1C [Compound 33, 3′-hydroxy-5′-[4-amino-1-piperidinyl]benzoxazinorifamycin]",>8 µg/mL
15,"CCNC(=O)NC1CCN(c2cc(O)c3nc4c5c6c7c(C)c(O)c5c(=O)c(c-4oc3c2)NC(=O)/C(C)=C\C=C\[C@H](C)[C@H](O)[C@@H](C)[C@@H](O)[C@@H](C)[C@H](OC(C)=O)[C@H](C)[C@@H](OC)/C=C/O[C@@](C)(O7)C6=O)CC1 [Compound 34, 3′-hydroxy-5′-[4-ethyluryl-1-piperidinyl]benzoxazinorifamycin]",8 µg/mL
16,"CCCC(=O)NC1CCN(c2cc(O)c3nc4c5c6c7c(C)c(O)c5c(=O)c(c-4oc3c2)NC(=O)C(C)=CC=CC(C)C(O)C(C)C(O)C(C)C(O)C(C)C(OC)C=COC(C)(O7)C6=O)CC1 (stereo not drawn) [Compound 36, 25-O-deacetyl-3′-hydroxy-5′-[4-butanamide-1-piperidinyl]benzoxazinorifamycin]",>8 µg/mL
17,"CCNC(=O)NC1CCN(c2cc(O)c3nc4c5c6c7c(C)c(O)c5c(=O)c(c-4oc3c2)NC(=O)C(C)=CC=CC(C)C(O)C(C)C(O)C(C)C(O)C(C)C(OC)C=COC(C)(O7)C6=O)CC1 (stereo not drawn) [Compound 37, 25-O-deacetyl-3′-hydroxy-5′-[4-ethyluryl-1-piperidinyl]benzoxazinorifamycin]",>8 µg/mL
18,COC1C=COC2(C)Oc3c(C)c(O)c4c(=O)c(c5oc6cc(N7CCC(NS(=O)(=O)C(F)(F)F)CC7)cc(O)c6nc-5c4c3C2=O)NC(=O)C(C)=CC=CC(C)C(O)C(C)C(O)C(C)C(O)C1C (stereo not drawn) [Compound 38],>8 µg/mL
19,"COC1C=COC2(C)Oc3c(C)c(O)c4c(=O)c(c5oc6cc(N7CCC(NC(C)=O)CC7)cc(O)c6nc-5c4c3C2=O)NC(=O)C(C)=CC=CC(C)C(O)C(C)C(O)C(C)C(O)C1C (stereo not drawn) [Compound 43, 25-O-deacetyl-3′-hydroxy-5′-[4-acetamide-1-piperidinyl]benzoxazinorifamycin]",>8 µg/mL
20,"COC1C=COC2(C)Oc3c(C)c(O)c4c(=O)c(c5oc6cc(N7CCC(NC(=O)OC(C)(C)C)CC7)cc(O)c6nc-5c4c3C2=O)NC(=O)C(C)=CC=CC(C)C(O)C(C)C(O)C(C)C(O)C1C (stereo not drawn) [Compound 52, 25-O-deacetyl-3′-hydroxy-5′-[4-(2,2-dimethylethyl)carbamyl-1-piperidinyl]benzoxazinorifamycin]",>8 µg/mL
21,"COC1C=COC2(C)Oc3c(C)c(O)c4c(=O)c(c5oc6cc(N7CC8C(C7)C8N(C)C)cc(O)c6nc-5c4c3C2=O)NC(=O)C(C)=CC=CC(C)C(O)C(C)C(O)C(C)C(OC(C)=O)C1C [Compound 53, 3′-hydroxy-5′-[6-N,N-dimethylamino-(1R,5S)-3-azabicyclo[3.1.0]hex-3-yl]benzoxazinorifamycin]",>8 µg/mL
22,"COC1C=COC2(C)Oc3c(C)c(O)c4c(=O)c(c5oc6cc(N7CC8C(C7)C8N(C)C)cc(O)c6nc-5c4c3C2=O)NC(=O)C(C)=CC=CC(C)C(O)C(C)C(O)C(C)C(O)C1C [Compound 54, 3′-hydroxy-5′-[6-N,N-dimethylamino-(1R,5S)-3-azabicyclo[3.1.0]hex-3-yl]benzoxazinorifamycin]",>8 µg/mL
23,"COC1C=COC2(C)Oc3c(C)c(O)c4c(=O)c(c5oc6cc(N7CCC(CNC(C)=O)CC7)cc(O)c6nc-5c4c3C2=O)NC(=O)C(C)=CC=CC(C)C(O)C(C)C(O)C(C)C(O)C1C (stereo not drawn) [Compound 56, 25-O-deacetyl-3′-hydroxy-5′-[4-acetylaminomethyl-1-piperidinyl]benzoxazinorifamycin]",8 µg/mL
24,"CCOC(=O)NCC1CCN(c2cc(O)c3nc4c5c6c7c(C)c(O)c5c(=O)c(c-4oc3c2)NC(=O)C(C)=CC=CC(C)C(O)C(C)C(O)C(C)C(O)C(C)C(OC)C=COC(C)(O7)C6=O)CC1 (stereo not drawn) [Compound 60, 25-O-deacetyl-3′-hydroxy-5′-[4-ethylcarbamylmethyl-1-piperidinyl]benzoxazinorifamycin]",>8 µg/mL
25,"COC1C=COC2(C)Oc3c(C)c(O)c4c(=O)c(c5oc6cc(N7CCC(c8ccccc8)CC7)cc(O)c6nc-5c4c3C2=O)NC(=O)C(C)=CC=CC(C)C(O)C(C)C(O)C(C)C(O)C1C (stereo not drawn) [Compound 62, 25-O-deacetyl-3′-hydroxy-5′-[4-phenyl-1-piperidinyl]benzoxazinorifamycin]",>8 µg/mL
26,"COCCOC(=O)NC1CCN(c2cc(O)c3nc4c5c6c7c(C)c(O)c5c(=O)c(c-4oc3c2)NC(=O)C(C)=CC=CC(C)C(O)C(C)C(O)C(C)C(O)C(C)C(OC)C=COC(C)(O7)C6=O)CC1 (stereo not drawn) [Compound 63, 25-O-deacetyl-3′-hydroxy-5′-[4-methoxyethylcarbamyl-1-piperidinyl]benzoxazinorifamycin]",8 µg/mL
27,CCCS(=O)(=O)NC1CCN(c2cc(O)c3nc4c5c6c7c(C)c(O)c5c(=O)c(c-4oc3c2)NC(=O)C(C)=CC=CC(C)C(O)C(C)C(O)C(C)C(O)C(C)C(OC)C=COC(C)(O7)C6=O)CC1 (stereo not drawn) [Compound 67],>8 µg/mL
